{"source": "patent US20060062832A1", "about": "“Sanitizing wipes with microbicidal properties cross-reference to related applications” (priority 2004, published 2006)", "type_in_all_cases": "cell-based", "key": {"[1]": {"system": "Aeromonas hydrophila ATCC 7965", "assay": "modified detergent and germicidal sanitizer test of the A.O.A.C.", "details": "A.h. 7965", "protocol": "(§1) The […], Listeria monocytogenes, Aeromonas hydrophila, and Pseudomonas aeruginosa essentially by the modified detergent and germicidal sanitizer test of the A.O.A.C. The sanitizers were tested against both natural isolates and the antibiotic resistant strains of Listeria monocytogenes and Salmonella typhimurium. Each of the antibiotic resistant strains was used separately as well as in a composite strain prepared by mixing equal numbers of five different antibiotic resistant strains of Listeria monocytogenes or those of Salmonella typhimurium, respectively."}, "[2]": {"system": "Listeria monocytogenes ATCC 7644", "assay": "modified detergent and germicidal sanitizer test of the A.O.A.C.", "details": "L.m. 7644", "protocol": "as §1"}, "[3]": {"system": "Pseudomonas aeruginosa ATCC 10145", "assay": "modified detergent and germicidal sanitizer test of the A.O.A.C.", "details": "P.a. 10145", "protocol": "(§2) The efficacy of the sanitizers of Examples I-III were further evaluated with 50 ppm of hypochlorite as a control against Salmonella typhimurium, Listeria monocytogenes, Aeromonas hydrophila, and Pseudomonas aeruginosa essentially by the modified detergent and germicidal sanitizer test of the A.O.A.C. The sanitizers were tested against both natural isolates and the antibiotic resistant strains of Listeria monocytogenes and Salmonella typhimurium. Each of the antibiotic resistant strains was used separately as well as in a composite strain prepared by mixing equal numbers of five different antibiotic resistant strains of Listeria monocytogenes or those of Salmonella typhimurium, respectively."}, "[4]": {"system": "Escherichia coli ATCC 11229", "assay": "A.O.A.C. sanitizer and germicidal detergent test", "details": "compositions at listed % w/v; hypochlorite 50 ppm; sanitizer criterion 99.999% in 30 s", "from_the_text": "(§3) The bacterial cultures were purchased from the American Type Culture Collection (ATCC), (Bethesda, Md.). Escherichia coli and Staphylococcus aureus are used to represent both gram negative and gram-positive bacterial classes. This test is used by the US EPA for to determine compliance for a product to be used as a sanitizing agent. A product that reduces population density of both types of bacteria in 30 s by 99.999% satisfies the requirement as a sanitizing agent."}, "[5]": {"system": "Staphylococcus aureus ATCC 6538", "assay": "A.O.A.C. sanitizer and germicidal detergent test", "details": "compositions at listed % w/v; hypochlorite 50 ppm; sanitizer criterion 99.999% in 30 s", "from_the_text": "as §3"}, "[6]": {"system": "Salmonella typhimurium ATCC 7823", "assay": "modified detergent and germicidal sanitizer test of the A.O.A.C.", "design": "key to Number of surviving bacteria/ml after 30 seconds: Too Numerous To Count", "details": "S.t. 7823", "protocol": "as §2"}, "[7]": {"details": "30 seconds contact, HOCL = 200 ppm (mark on the cfu cell beside)"}}}
{"smiles": "OCl", "note": "[Hypochlorite]", "values": [{"measurement": "% Kill after 30 seconds", "setting": "[1]; [7]", "result": ">99.999", "unit": "%"}, {"measurement": "% Kill after 60 seconds", "setting": "[1]; 60 seconds contact", "result": ">99.999", "unit": "%"}, {"measurement": "% Kill after 30 seconds", "setting": "[2]; [7]", "result": ">99.999", "unit": "%"}, {"measurement": "% Kill after 60 seconds", "setting": "[2]; 60 seconds contact", "result": ">99.999", "unit": "%"}, {"measurement": "% Kill after 30 seconds", "setting": "[3]; 30 seconds contact", "result": ">99.999", "unit": "%"}, {"measurement": "% Kill after 60 seconds", "setting": "[3]; 60 seconds contact", "result": ">99.999", "unit": "%"}, {"measurement": "% Kill E. coli", "setting": "[4]", "result": ">99.999", "unit": "%"}, {"measurement": "% Kill Staph. aureus", "setting": "[5]", "result": ">99.999", "unit": "%"}, {"measurement": "Number of surviving bacteria/ml after 30 seconds", "setting": "[6]; 30 seconds contact, HOCL = 50 ppm", "result": "T@, T@"}, {"measurement": "% Kill after 30 seconds", "setting": "[6]; 30 seconds contact, HOCL = 50 ppm (mark on the cfu cell beside)", "result": "<99.999", "unit": "%"}, {"measurement": "% Kill after 60 seconds", "setting": "[6]; 60 seconds contact", "result": ">99.999", "unit": "%"}]}
